This is an account of results in patent US20050192279A1, “Pyridazinones as antagonists of alpha4 integrins” (priority 2004, published 2005).

One assay addresses T1, human α4β7 integrin (Homo sapiens, UniProt P13612+P26010).
T1 construct: expressed in transfected cells; host or cells: K562 cells, stably transfected
T1 sequence (P13612 34-1032): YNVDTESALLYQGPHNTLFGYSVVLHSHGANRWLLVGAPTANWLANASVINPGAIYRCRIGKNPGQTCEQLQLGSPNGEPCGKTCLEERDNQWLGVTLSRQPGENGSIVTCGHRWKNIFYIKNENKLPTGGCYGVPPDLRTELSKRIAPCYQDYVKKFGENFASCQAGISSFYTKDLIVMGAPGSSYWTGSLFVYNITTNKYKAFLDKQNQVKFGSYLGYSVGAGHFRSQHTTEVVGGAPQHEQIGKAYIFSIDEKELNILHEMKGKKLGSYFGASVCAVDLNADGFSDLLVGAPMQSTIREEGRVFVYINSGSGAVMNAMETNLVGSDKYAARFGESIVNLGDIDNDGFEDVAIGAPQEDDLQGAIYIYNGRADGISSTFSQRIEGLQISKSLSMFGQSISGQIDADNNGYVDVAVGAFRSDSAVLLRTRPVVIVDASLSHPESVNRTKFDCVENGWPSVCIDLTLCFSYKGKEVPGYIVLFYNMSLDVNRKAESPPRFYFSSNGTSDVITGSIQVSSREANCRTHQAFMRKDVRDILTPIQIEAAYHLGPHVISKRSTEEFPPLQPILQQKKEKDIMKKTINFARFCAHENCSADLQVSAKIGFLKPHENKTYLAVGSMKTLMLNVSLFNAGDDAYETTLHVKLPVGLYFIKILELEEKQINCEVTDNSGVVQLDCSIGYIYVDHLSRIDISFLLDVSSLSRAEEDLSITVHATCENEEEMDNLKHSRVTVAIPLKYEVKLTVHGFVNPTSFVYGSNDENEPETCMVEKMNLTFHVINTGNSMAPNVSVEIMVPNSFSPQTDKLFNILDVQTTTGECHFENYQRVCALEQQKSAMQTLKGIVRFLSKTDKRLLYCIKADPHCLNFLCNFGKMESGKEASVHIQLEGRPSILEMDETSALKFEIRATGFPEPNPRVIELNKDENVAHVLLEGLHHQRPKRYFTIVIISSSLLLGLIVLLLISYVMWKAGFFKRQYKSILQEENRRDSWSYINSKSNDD
T1 sequence (P26010 20-798): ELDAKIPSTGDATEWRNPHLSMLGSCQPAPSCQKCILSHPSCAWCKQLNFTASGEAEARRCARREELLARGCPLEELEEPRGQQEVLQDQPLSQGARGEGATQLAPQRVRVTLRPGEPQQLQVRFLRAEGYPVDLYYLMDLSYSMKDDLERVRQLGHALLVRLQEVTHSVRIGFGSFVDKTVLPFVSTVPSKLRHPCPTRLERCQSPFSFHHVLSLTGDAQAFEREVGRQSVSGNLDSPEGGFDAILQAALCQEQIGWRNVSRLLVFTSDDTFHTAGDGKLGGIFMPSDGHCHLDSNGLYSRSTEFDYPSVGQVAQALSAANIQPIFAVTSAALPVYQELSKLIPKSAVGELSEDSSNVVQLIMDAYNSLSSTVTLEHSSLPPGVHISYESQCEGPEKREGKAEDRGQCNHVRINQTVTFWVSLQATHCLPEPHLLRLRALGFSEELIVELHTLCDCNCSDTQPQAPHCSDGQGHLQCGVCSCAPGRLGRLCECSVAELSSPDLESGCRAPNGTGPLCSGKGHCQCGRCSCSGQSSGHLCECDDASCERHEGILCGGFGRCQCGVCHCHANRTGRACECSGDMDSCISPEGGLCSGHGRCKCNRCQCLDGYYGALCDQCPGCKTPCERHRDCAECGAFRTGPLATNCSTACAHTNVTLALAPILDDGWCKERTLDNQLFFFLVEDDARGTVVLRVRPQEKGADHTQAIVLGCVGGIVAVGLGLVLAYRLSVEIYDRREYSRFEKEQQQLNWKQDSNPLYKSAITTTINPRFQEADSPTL
Description: α4β7-K562 Cell Adhesion Assay (α4β7 Mediated Adhesion/MAdCAM-1). As to conditions: α4β7-K562 cell adhesion to hMAdCAM-1; read-out: α4β7 IC50. In kind it is cell-based. As for the experimental part: α4β7-K562 Cell Adhesion Assay (α4β7 Mediated Adhesion/MAdCAM-1)
M2 anti-FLAG Antibody Coated 96-well plates (Sigma) were coated for 1 hour at 4° C. with 2-8 μl/well recombinant FLAG-hMAdCAM-1 contained in 100 μL of Dulbecco's PBS, pH 7.4, with 1% BSA and 1 mM Mn ^+2 (PBS-BSA-Mn). Plates were washed once with PBS-BSA-Mn. Buffer was removed and compounds to be tested (50 μL) were added at 2× concentration. Stably transfected K562 cells expressing human α4β7 integrin, (50 μL at 2×10^6/mL) that had been labeled with 100 μg/ml carboxymethyl fluorescein diacetate succinimidyl ester (CFDA-SE; Molecular Probes) for 15 min at 37° C. were added to each well and allowed to adhere for 1 h at room temperature. Plates were washed 4× in PBS-BSA-Mn and then cells were lysed for 2 minutes by addtion of 100 μL of PBS without Ca, Mg supplemented with 0.1 M NaOH.

A further assay has as its target T2, α4β1 (Homo sapiens, UniProt P05556+P13612).
T2 construct: Ramos Cell Adhesion Assay (α4β1 Mediated Adhesion/VCAM-1); endogenous in cells; host or cells: Ramos cells
The assay can be described thus: Ramos Cell Adhesion Assay (α4β1 Mediated Adhesion/VCAM-1). Type of assay: cell-based. As to conditions: Ramos cell adhesion to hVCAM-1; read-out: α4β1 IC50. On the procedure:
Ramos Cell Adhesion Assay (α4β1 Mediated Adhesion/VCAM-1)
Immulon 96 well plates (Dynex) were coated with 100 μL recombinant hVCAM-1 at 4.0 μg/mL in 0.05 M NaCO3 buffer pH 9.0 overnight at 4° C. (R&D Systems). Plates were washed 2 times in PBS with 1% BSA and blocked for 1 h @ room temperature in this buffer. PBS was removed and compounds to be tested (50 μL) were added at 2× concentration. Ramos cells, (50 μL at 2×10^6/mL) labeled with 5 μM Calcein AM (Molecular Probes) for 1 h at 37° C., were added to each well and allowed to adhere for 1 h at room temperature. Plates were washed 4× in PBS+1% BSA and cells were lysed for 15 minutes in 100 μL of 1 M Tris pH 8.0 with 1% SDS.

T2 sequence (P05556 21-798, one chain of several): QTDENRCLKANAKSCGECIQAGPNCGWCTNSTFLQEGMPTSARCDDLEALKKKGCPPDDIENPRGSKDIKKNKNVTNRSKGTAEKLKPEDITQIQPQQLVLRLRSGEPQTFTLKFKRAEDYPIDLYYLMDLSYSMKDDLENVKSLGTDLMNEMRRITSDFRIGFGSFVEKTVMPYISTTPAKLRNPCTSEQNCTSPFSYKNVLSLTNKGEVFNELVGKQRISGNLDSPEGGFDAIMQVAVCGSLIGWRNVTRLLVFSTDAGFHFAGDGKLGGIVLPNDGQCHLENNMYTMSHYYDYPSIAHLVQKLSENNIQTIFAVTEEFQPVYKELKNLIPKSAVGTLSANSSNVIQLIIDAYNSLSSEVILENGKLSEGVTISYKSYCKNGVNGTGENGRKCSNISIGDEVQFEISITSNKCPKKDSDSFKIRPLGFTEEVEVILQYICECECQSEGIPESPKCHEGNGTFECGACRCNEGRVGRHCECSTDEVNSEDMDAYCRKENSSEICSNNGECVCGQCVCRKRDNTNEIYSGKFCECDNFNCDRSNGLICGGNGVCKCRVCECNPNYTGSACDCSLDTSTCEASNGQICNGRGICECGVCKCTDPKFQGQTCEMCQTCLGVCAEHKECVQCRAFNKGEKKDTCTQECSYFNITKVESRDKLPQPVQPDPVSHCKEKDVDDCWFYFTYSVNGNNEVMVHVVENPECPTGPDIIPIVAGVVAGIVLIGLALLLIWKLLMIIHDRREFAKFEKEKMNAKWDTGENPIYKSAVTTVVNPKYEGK

Regarding `Cn1ncc(OCc2cccnc2)c(-c2ccc(C[C@H](NC(=O)c3c(Cl)cccc3Cl)C(=O)O)cc2)c1=O` [Cpd 25], the IC50 (commonly the concentration that gives 50% inhibition) at human α4β7 integrin came out at 5 nM; at α4β1, 133 nM.
As to `COc1cnn(C)c(=O)c1-c1ccc(C[C@H](NC(=O)[C@H](NC2CCCCC2)C(C)C)C(=O)O)cc1` [Cpd 28], the half-maximal inhibitory concentration (IC50) at human α4β7 integrin came to 5 nM; on α4β1, 2620 nM.
The corresponding values for `CCn1ncc(N2CCOCC2)c(-c2ccc(C[C@H](NC(=O)c3c(Cl)cccc3Cl)C(=O)O)cc2)c1=O` [Cpd 29] are 6 nM and > 1000 nM.
For `COc1cnn(C)c(=O)c1-c1ccc(C[C@H](NC(=O)c2c(Cl)cccc2Cl)C(=O)OCCN(C)C)cc1` [Cpd 34], the values for the IC50 at human α4β7 integrin and on α4β1 were 8 nM and 250 nM, respectively.
With `C=CCNc1cnn(CC(C)=O)c(=O)c1-c1ccc(C[C@H](NC(=O)c2c(Cl)cccc2Cl)C(=O)O)cc1` [Cpd 36], the half-maximal inhibitory concentration (IC50) on human α4β7 integrin is 9 nM; at α4β1, 1310 nM.
For `Cn1ncc(OCC(F)(F)F)c(-c2ccc(C[C@H](NC(=O)c3c(Cl)cccc3Cl)C(=O)O)cc2)c1=O` [Cpd 37] the same measures were 9 nM and 474 nM.
For `COc1cnn(C)c(=O)c1-c1ccc(C[C@H](NC(=O)C2(C(N)=O)CC2)C(=O)O)cc1` [Cpd 38] the same measures were 9 nM and > 5000 nM.
The corresponding values for `COc1cnn(CC(F)(F)F)c(=O)c1-c1ccc(C[C@H](NC(=O)c2c(Cl)cccc2Cl)C(=O)O)cc1` [Cpd 39] are 10 nM and 588 nM.
With `COc1cnn(C)c(=O)c1-c1ccc(C[C@H](NC(=O)C2(NC3CCCCC3)CC2)C(=O)O)cc1` [Cpd 40], the IC50 at human α4β7 integrin is 38 nM; at α4β1, > 5000 nM.
As to `Cn1ncc(OC2CCCCC2)c(-c2ccc(C[C@H](NC(=O)c3c(Cl)cccc3Cl)C(=O)O)cc2)c1=O` [Cpd 41], the IC50 was 11 nM on human α4β7 integrin and 152 nM at α4β1.
The corresponding values for `COc1cnn(C)c(=O)c1-c1ccc(C[C@H](NC(=O)C2(NC(C)C)CCOCC2)C(=O)O)cc1` [Cpd 42] are 59 nM and 936 nM.
For the compound `O=C(N[C@@H](Cc1ccc(-c2c(OC3CCCC3)cnn(CCO)c2=O)cc1)C(=O)O)c1c(Cl)cccc1Cl` [Cpd 43], the concentration for half-maximal inhibition (IC50) stood at 12 nM at human α4β7 integrin and 437 nM on α4β1.
As for `COc1cnn(C)c(=O)c1-c1ccc(C[C@H](NC(=O)[C@H](C(C)C)N(C)C(=O)OC(C)(C)C)C(=O)O)cc1` [Cpd 48], the IC50 on human α4β7 integrin was determined as 13 nM; on α4β1, 974 nM.
In the case of `Cn1ncc(Cl)c(-c2ccc(C[C@H](NC(=O)c3c(Cl)cccc3Cl)C(=O)O)cc2)c1=O` [Cpd 49], the IC50 on human α4β7 integrin is 14 nM; on α4β1 it was 486 nM.
The corresponding values for `COc1cnn(C)c(=O)c1-c1ccc(C[C@H](NC(=O)[C@@H](C)N(C)C(=O)Cc2ccsc2)C(=O)O)cc1` [Cpd 50] are 14 nM and 229 nM.
The corresponding values for `Cn1ncc(N2CCCC2)c(-c2ccc(C[C@H](NC(=O)c3c(Cl)cccc3Cl)C(=O)O)cc2)c1=O` [Cpd 51] are 16 nM and 113 nM.
For the compound `Cn1ncc(OCc2ccccc2)c(-c2ccc(C[C@H](NC(=O)c3c(Cl)cccc3Cl)C(=O)O)cc2)c1=O` [Cpd 52], the IC50 was determined as 17 nM at human α4β7 integrin and 663 nM on α4β1.
For `O=C(N[C@@H](Cc1ccc(-c2c(OC3CCC3)cnn(CCO)c2=O)cc1)C(=O)O)c1c(Cl)cccc1Cl` [Cpd 53] the same measures were 17 nM and 269 nM.
The corresponding values for `COc1cnn(-c2ccccc2)c(=O)c1-c1ccc(C[C@H](NC(=O)c2c(Cl)cccc2Cl)C(=O)O)cc1` [Cpd 56] are 18 nM and 3860 nM.
On to `Cn1ncc(OC2CCCC2)c(-c2ccc(C[C@H](NC(=O)c3c(Cl)cccc3Cl)C(=O)O)cc2)c1=O` [Cpd 60], for which the concentration for half-maximal inhibition (IC50) was found to be 20 nM at human α4β7 integrin and 155 nM on α4β1.
The corresponding values for `Cn1ncc(O)c(-c2ccc(C[C@H](NC(=O)c3c(Cl)cncc3Cl)C(=O)O)cc2)c1=O` [Cpd 62] are 21 nM and 40 nM.
Consider `CS(=O)(=O)c1ccc(-c2cnn(CC3CC3)c(=O)c2-c2ccc(C[C@H](NC(=O)c3c(Cl)cccc3Cl)C(=O)O)cc2)cc1` [Cpd 65], for which the results for the concentration for half-maximal inhibition (IC50) at human α4β7 integrin and at α4β1 were 21 nM and 4220 nM, respectively.
`CN[C@H](C(=O)N[C@@H](Cc1ccc(-c2c(OC)cnn(C)c2=O)cc1)C(=O)O)[C@@H](C)OCc1ccccc1` [Cpd 68]: the IC50 came to 24 nM at human α4β7 integrin and 473 nM on α4β1.
Take `CN1CCC(Oc2cnn(CCO)c(=O)c2-c2ccc(C[C@H](NC(=O)c3c(Cl)cccc3Cl)C(=O)O)cc2)C1` (stereo partly drawn) [Cpd 72]: the half-inhibitory concentration (IC50) at human α4β7 integrin came out at 26 nM; on α4β1, 190 nM.
For `CC(C)Oc1cnn(C)c(=O)c1-c1ccc(C[C@H](NC(=O)c2c(Cl)cccc2Cl)C(=O)O)cc1` [Cpd 74], the results for the IC50 at human α4β7 integrin and at α4β1 were 27 nM and 135 nM, respectively.
Turning to `COc1cnn(C)c(=O)c1-c1ccc(C[C@H](NC(=O)c2c(Cl)cccc2Cl)C(=O)OCCCl)cc1` [Cpd 75], the results for the half-maximal inhibitory concentration (IC50) at human α4β7 integrin and at α4β1 were 28 nM and > 5000 nM, respectively.
In the case of `CSc1cnn(C(C)(C)C)c(=O)c1-c1ccc(C[C@H](NC(=O)c2c(Cl)cccc2Cl)C(=O)O)cc1` [Cpd 78], the results for the concentration for half-maximal inhibition (IC50) at human α4β7 integrin and at α4β1 were 36 nM and 5610 nM, respectively.
In the case of `COc1cnn(C)c(=O)c1-c1ccc(C[C@H](NC(=O)C2(n3c(C)ccc3C)CC2)C(=O)O)cc1` [Cpd 80], the half-maximal inhibitory concentration (IC50) is 228 nM on human α4β7 integrin and > 5000 nM on α4β1.
Consider `COc1cnn(C)c(=O)c1-c1ccc(C[C@H](NC(=O)[C@H](NC(=O)OC(C)(C)C)C(C)C)C(=O)O)cc1` [Cpd 81, (R)-2-(2-tert-Butoxycarbonylamino-3-methyl-butyrylamino)-3-(S)-[4-(5-methoxy-2-methyl-3-oxo-2,3-dihydro-pyridazin-4-yl)-phenyl]-propionic acid], for which the figures for the half-maximal inhibitory concentration (IC50) on human α4β7 integrin and on α4β1 were 39 nM and 987 nM, respectively.
For the compound `COc1cn[nH]c(=O)c1-c1ccc(C[C@H](NC(=O)c2c(Cl)cccc2Cl)C(=O)O)cc1` [Cpd 83], the results for the half-maximal inhibitory concentration (IC50) on human α4β7 integrin and on α4β1 were 41 nM and 1020 nM, respectively.
